These compounds were tested against T1, IRAK4 kinase (Homo sapiens, UniProt Q9NWZ3) (assay: IRAK4 kinase activity test (KinEASE-STK S1 HTRF kit)). Conditions: IRAK4 kinase 2.5 nM, 7 μM adenosine triphosphate, 37° C. 120 min.
T1 construct: purchased Carna
T1 sequence (Q9NWZ3 1-460): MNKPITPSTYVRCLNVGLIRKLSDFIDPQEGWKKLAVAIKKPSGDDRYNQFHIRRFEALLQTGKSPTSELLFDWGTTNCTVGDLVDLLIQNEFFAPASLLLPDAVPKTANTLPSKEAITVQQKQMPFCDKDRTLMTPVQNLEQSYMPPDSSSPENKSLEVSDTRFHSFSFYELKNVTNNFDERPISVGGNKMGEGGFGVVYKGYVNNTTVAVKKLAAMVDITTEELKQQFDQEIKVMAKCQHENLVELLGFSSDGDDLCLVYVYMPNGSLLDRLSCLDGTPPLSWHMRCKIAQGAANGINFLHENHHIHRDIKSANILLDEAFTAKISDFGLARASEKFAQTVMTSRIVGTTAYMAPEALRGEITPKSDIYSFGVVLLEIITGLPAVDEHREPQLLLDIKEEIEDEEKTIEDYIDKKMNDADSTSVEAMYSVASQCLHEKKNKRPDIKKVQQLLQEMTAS
Type: biochemical
Protocol: Then 2.5 nM IRAK4 kinase (Carna), 1 μM biotinylated polypeptide substrate (Cisbio), and 7 μM adenosine triphosphate (Sigma-Aldrich) were sequentially added, and the mixtures were incubated at 37° C. for 120 min. Subsequently, an anti-phosphoserine/threonine antibody (Cisbio) conjugated with a europium element compound and streptavidin conjugated with a modified XL665 (Cisbio) were added to the reaction system to stop the reaction. After 1 h of incubation at room temperature, the fluorescence intensity of each well was measured at the excitation wavelength of 337 nm and the emission wavelengths of 620 nm and 665 nm with a microplate reader EnVision (PerkinElmer) in the HTRF mode, and Ratio values were calculated using the formula: Ratio=(665 nm/620 nm)×10^4. The inhibition rates of the compounds at each concentration were calculated by comparison with the fluorescence intensity ratio of the control group. Then non-linear curve fittings for logarithmic concentration-inhibition rate were performed using GraphPad Prism 7, and the IC50 values of the compounds were obtained.

| IC50 [nM] | Compound |
| --- | --- |
| 9.29 | COc1cc2nn([C@H]3CC[C@@](COCCC4CCN(C(=O)c5ccc(Cl)c(N6CCC(=O)NC6=O)c5)CC4)(OC)CC3)cc2cc1NC(=O)c1cccc(C(F)(F)F)n1 [Example 36] |
| 8.05 | CN(CCC1CCN(C(=O)c2ccc(Cl)c(N3CCC(=O)NC3=O)c2)CC1)C[C@H]1CC[C@H](n2cc(NC(=O)c3cnn4ccc(N5CC6CCC(C5)O6)nc34)c(C(F)F)n2)CC1 [Example 10, 5-(8-oxa-3-azabicyclo[3.2.1]octan-3-yl)-N-(1-((1R,4R)-4-(((2-(1-(4-chloro-3-(2,4-dioxotetrahydropyrimidin-1(2H)-yl)benzoyl)piperidin-4-yl)ethyl)(methyl)amino)methyl)cyclohexyl)-3-(difluoromethyl)-1H-pyrazol-4-yl)pyrazolo[1,5-a]pyrimidine-3-carboxamide] |

What follows are compounds tested against T2, IRAK4 protein in normal human PBMCs (Homo sapiens, UniProt Q9NWZ3) (assay: Degradation of IRAK4 protein in normal human PBMCs (AlphaLISA)). Conditions: 24 h incubation.
T2 construct: host or cells: normal human PBMCs
T2 sequence (Q9NWZ3 1-460): T1 sequence (Q9NWZ3 1-460)
Type: cell-based
Protocol: The cryopreserved normal human PBMCs (Milestone, PB010C) were thawed and resuspended in RPMI 1640 medium (Gibco, A1049101) supplemented with 10% fetal bovine serum (Gibco, 10099141), 100 U/mL penicillin, and 100 µg/mL streptomycin (Gibco, 15140122). After 0.95 mL of cells were plated in each well of a 24-well cell culture plate, 50 µL of diluted compound solution was added to corresponding wells with cells, such that the final concentration of the compound fell within the range of 0.01-3000 nM. The final concentration of DMSO was 0.25%. After the compound-treated cell plate was incubated in an incubator at 37° C. with 5% CO2 for 24 h, the cells were collected into 1.5 mL centrifuge tubes and centrifuged at 1000 rpm at 4° C. for 5 min. The cell pellets were washed twice with 1×DPBS. The resuspended cells were lysed with 100 μL of lysis buffer, left to stand on ice for 30 min, and then centrifuged at 14000 g at 4° C. for 10 min. The samples of the cell lysate supernatant after centrifugation were cryopreserved at −80° C. before testing. The cell lysis buffer was a Western and IP cell lysis buffer (Beyotime, P0013) supplemented with 1 mM phenylmethylsulfonyl fluoride and a protease inhibitor cocktail (Beyotime, P1008).
The total protein concentrations of the cell lysate samples were determined using a BCA protein quantification kit (Tiangen, PA115-02).
The prepared PBMC lysate samples were assayed for IRAK4 concentrations using a human IRAK4 AlphaLISA assay kit (PerkinElmer, AL3117C) to determine the degradation effects of the compounds on IRAK4. The method is as follows:
5 μL of each of IRAK4 standard solutions with different concentrations and test samples of cell lysate supernatant were added to a white 384-well plate (PerkinElmer, 6007299), and then 10 μL of 5× anti-IRAK4 […] beads was added to each well (final concentration of 10 μg/mL). The plate was incubated at room temperature for 30 min. Then 10 μL of 5× biotin-labeled anti-IRAK4 antibody was added to each well (final concentration of 1 nM), and the plate was incubated at room temperature for another 60 min. Finally, 25 μL of 2× streptavidin-labeled donor beads was added to each well (final concentration of 40 μg/mL), and the plate was incubated at room temperature for another 30 min. After the incubation was completed, AlphaLISA signal values were measured on a microplate reader EnVision (PerkinElmer, 2105) in the AlphaScreen standard mode. A standard curve was plotted from the AlphaLISA signal values of the IRAK4 standard solutions with different concentrations, and the IRAK4 concentration of each cell lysate supernatant was determined according to the corresponding concentrations on the standard curve for the AlphaLISA signal values of the test samples and by performing corresponding correction on the total protein concentration of each sample obtained by BCA quantification. The degradation rates for the compounds at each concentration were calculated by comparing the IRAK4 concentration with that of the control group. Then non-linear curve fittings for logarithmic concentration-inhibition rate were performed using GraphPad Prism 8, and the DC50 and Dmax values of the compound were obtained.

| DC50 [nM] | Dmax [%] | Compound |
| --- | --- | --- |
| 2.03 | 98.6 | COc1cc2nn([C@H]3CC[C@@](COCCC4CCN(C(=O)c5ccc(Cl)c(N6CCC(=O)NC6=O)c5)CC4)(OC)CC3)cc2cc1NC(=O)c1cccc(C(F)(F)F)n1 [Example 36] |
| 0.67 | 97.6 | CN(CCC1CCN(C(=O)c2ccc(Cl)c(N3CCC(=O)NC3=O)c2)CC1)C[C@H]1CC[C@H](n2cc(NC(=O)c3cnn4ccc(N5CC6CCC(C5)O6)nc34)c(C(F)F)n2)CC1 [Example 10, 5-(8-oxa-3-azabicyclo[3.2.1]octan-3-yl)-N-(1-((1R,4R)-4-(((2-(1-(4-chloro-3-(2,4-dioxotetrahydropyrimidin-1(2H)-yl)benzoyl)piperidin-4-yl)ethyl)(methyl)amino)methyl)cyclohexyl)-3-(difluoromethyl)-1H-pyrazol-4-yl)pyrazolo[1,5-a]pyrimidine-3-carboxamide] |
| 0.72 | 95.7 | O=C1CCN(c2cc(C(=O)N3CCC4(CCC(CCN5CCC(n6cc(NC(=O)c7cnn8ccc(N9CCOCC9)nc78)c(C(F)F)n6)CC5)CC4)CC3)ccc2Cl)C(=O)N1 [Example 20, N-(1-(1-(2-(3-(4-chloro-3-(2,4-dioxotetrahydropyrimidin-1(2H)-yl)benzoyl)-3-azaspiro[5.5]undecan-9-yl)ethyl)piperidin-4-yl)-3-(difluoromethyl)-1H-pyrazol-4-yl)-5-morpholinopyrazolo[1,5-a]pyrimidine-3-carboxamide] |
| 0.7 | 98.4 | COc1ccc(C(=O)N2CCC3(CCC(CCN4CCC(n5cc(NC(=O)c6cnn7ccc(N8CCOCC8)nc67)c(C(F)F)n5)CC4)CC3)CC2)cc1N1CCC(=O)NC1=O [Example 16, N-(3-(difluoromethyl)-1-(1-(2-(3-(3-(2,4-dioxotetrahydropyrimidin-1(2H)-yl)-4-methoxybenzoyl)-3-azaspiro[5.5]undecan-9-yl)ethyl)piperidin-4-yl)-1H-pyrazol-4-yl)-5-morpholinopyrazolo [1,5-a]pyrimidine-3-carboxamide] |
| 2.17 | 99 | Cc1ccc(C(=O)N2CCC3(CCC(CN4CCC(n5cc(NC(=O)c6cnn7ccc(N8CCC[C@H](N)C8)nc67)c(C(F)F)n5)CC4)CC3)CC2)cc1N1CCC(=O)NC1=O [Example 23, (S)-5-(3-aminopiperidin-1-yl)-N-(3-(difluoromethyl)-1-(1-((3-(3-(2,4-dioxotetrahydropyrimidin-1(2H)-yl)-4-methylbenzoyl)-3-azaspiro[5.5]undecan-9-yl)methyl)piperidin-4-yl)-1H-pyrazol-4-yl)pyrazolo[1,5-a]pyrimidine-3-carboxamide] |
| 0.21 | 98.2 | Cc1ccc(C(=O)N2CCC3(CCC(CN4CCC(n5cc(NC(=O)c6cnn7ccc(N8CCOCC8)nc67)c(C(F)F)n5)CC4)CC3)CC2)cc1N1CCC(=O)NC1=O [Example 13, N-(3-(difluoromethyl)-1-(1-((3-(3-(2,4-dioxotetrahydropyrimidin-1(2H)-yl)-4-methylbenzoyl)-3-azaspiro[5.5]undecan-9-yl)methyl)piperidin-4-yl)-1H-pyrazol-4-yl)-5-morpholinopyrazolo[1,5-a]pyrimidine-3-carboxamide] |

Further lines, the compound ahead of its results:

| Compound | DC50 [nM] | Dmax [%] |
| --- | --- | --- |
| COc1ccc(C(=O)N2CCC3(CCC(CN4CCC(n5cc(NC(=O)c6cnn7ccc(N8CC9CCC(C8)O9)nc67)c(C(F)F)n5)CC4)CC3)CC2)cc1N1CCC(=O)NC1=O [Example 6, 5-(8-oxa-3-azabicyclo[3.2.1]octan-3-yl)-N-(3-(difluoromethyl)-1-(1-((3-(3-(2,4-dioxotetrahydropyrimidin-1(2H)-yl)-4-methoxybenzoyl)-3-azaspiro[5.5]undecan-9-yl)methyl)piperidin-4-yl)-1H-pyrazol-4-yl)pyrazolo[1,5-a]pyrimidine-3-carboxamide] | 0.56 | 97.9 |
| O=C1CCN(c2cc(C(=O)N3CCC(CCCCN4CCC(n5cc(NC(=O)c6cnn7ccc(N8C[C@H]9C[C@@H]8CO9)nc67)c(C(F)F)n5)CC4)CC3)ccc2Cl)C(=O)N1 [Example 7, 5-((1R,4R)-2-oxa-5-azabicyclo[2.2.1]heptan-5-yl)-N-(1-(1-(4-(1-(4-chloro-3-(2,4-dioxotetrahydropyrimidin-1(2H)-yl)benzoyl)piperidin-4-yl)butyl)piperidin-4-yl)-3-(difluoromethyl)-1H-pyrazol-4-yl)pyrazolo[1,5-a]pyrimidine-3-carboxamide] | 0.39 | 98.1 |
| O=C1CCN(c2cc(C(=O)N3CCC4(CCC(CN5CCC(n6cc(NC(=O)c7cnn8ccc(N9C[C@H]%10C[C@@H]9CO%10)nc78)c(C(F)F)n6)CC5)CC4)CC3)ccc2Cl)C(=O)N1 [Example 1, 5-((1R,4R)-2-oxa-5-azabicyclo[2.2.1]heptan-5-yl)-N-(1-(1-((3-(4-chloro-3-(2,4-dioxotetrahydropyrimidin-1(2H)-yl)benzoyl)-3-azaspiro[5.5]undecan-9-yl)methyl)piperidin-4-yl)-3-(difluoromethyl)-1H-pyrazol-4-yl)pyrazolo[1,5-a]pyrimidine-3-carboxamide] | 1.28 | 99 |
| O=C1CCN(c2cc(C(=O)N3CCC4(CCC(CN5CCC(n6cc(NC(=O)c7cnn8ccc(N9CCOCC9)nc78)c(C(F)F)n6)CC5)CC4)CC3)ccc2Cl)C(=O)N1 [Example 4, N-(1-(1-((3-(4-chloro-3-(2,4-dioxotetrahydropyrimidin-1(2H)-yl)benzoyl)-3-azaspiro[5.5]undecan-9-yl)methyl)piperidin-4-yl)-3-(difluoromethyl)-1H-pyrazol-4-yl)-5-morpholinopyrazolo[1,5-a]pyrimidine-3-carboxamide] | 0.39 | 97.2 |
| O=C1CCN(c2cc(C(=O)N3CCC4(CCN(C[C@H]5CC[C@H](n6cc(NC(=O)c7cnn8ccc(N9C[C@H]%10C[C@@H]9CO%10)nc78)c(C(F)F)n6)CC5)CC4)CC3)ccc2Cl)C(=O)N1 [Example 2, 5-((1R,4R)-2-oxa-5-azabicyclo[2.2.1]heptan-5-yl)-N-(1-((1r,4R)-4-((9-(4-chloro-3-(2,4-dioxotetrahydropyrimidin-1(2H)-yl)benzoyl)-3,9-diazaspiro[5.5]undecan-3-yl)methyl)cyclohexyl)-3-(difluoromethyl)-1H-pyrazol-4-yl)pyrazolo[1,5-a]pyrimidine-3-carboxamide] | 1.56 | 99.1 |

From patent US20260174878A1, “IRAK4 DEGRADATION AGENT AND USE THEREOF” (LEADINGTAC PHARMACEUTICAL (SHAOXING) CO., LTD., priority 2022, published 2026)
